From patent US20210108199A1, “Treatment for aggressive cancers by targeting C9ORF72” (The Trustees of Columbia University in the City of New York, priority 2017, published 2021)
Counter-ions that a name gives are not always drawn. Where a SMILES comes first, the peptide text is derived from it. The star is where a group is joined. Cbz = O=C(OCc1ccccc1)*; CH2F = FC*

Key:
Type in all cases: cell-based
U87 cells [1] = assay: RAC1 inhibition with NSC23766, vacuoles per cell; conditions: C9 KD U87 cells, 100 μM NSC23766 vs DMSO, 3 days
Procedure: Macropinocytosis is known to depends on RAC1 activation which induces membrane ruffling (through actin rearrangement) that mature into macropinosomes. If the accumulated vacuoles are of macropinocytotic origin, then inhibition of RAC1 should rescue their accumulation. To test this, cells were treated with control or C9 siRNA in combination with NSC23766 (NSC), a RAC1 inhibitor.
FIG. 11A, FIG. 11B, FIG. 11C and FIG. 11D are a set of phase contrast images (20×) of U87 cells treated with control or C9 siRNA (SEQ ID NO:631) and incubated in DMSO (siCtrl+DMSO and siC9+DMSO, respectively) or in 100 μM RAC1 inhibitor NSC23766 (siCtrl+NSC and siC9+NSC, respectively). The scale bar represents 10 μm. […] FIG. 12 is a graph representing quantitation of the data for U87 cells treated with control (n=76) siRNA and DMSO (blue dots), U87 cells treated with C9 siRNA (n=41) with DMSO (red squares), U87 cells treated with control (n=74) siRNA and 100 μm of NSC (green dots), and U87 cells treated with C9 siRNA (n=73) with 100 μm of NSC (purple dots). Statistical significance was assessed by an unpaired t-test: NS P>0.05, *P≤0.05, **P≤0.01, ***P≤0.001 ****P≤0.0001.

U87 cells [2] = assay: Macropinocytosis inhibition with EIPA; conditions: C9 KD U87 cells, 20 μM EIPA vs DMSO
Procedure: Cell were treated with control and C9 siRNA. After 6 hours, media were replaced and control and siC9 cells were either treated with DMSO or with 20 μM 5-(N-Ethyl-N-isopropyl) amiloride (Sigma™, A3085). After 3 days, cells were then imaged using Nikon Eclipse™ Ts2-FL Inverted Fluorescence Microscope and vacuoles from images were quantitated using ImageJ™.
In another study to further confirm the macropinocytotic origin of the vacuoles, 5-(N-ethyl-N-isopropyl) amiloride (EIPA), a macropinocytosis inhibitor was used.
FIG. 9 presents phase contrast images (40×) of U87 cells treated with control or C9 siRNA (SEQ ID NO;631) and incubated in DMSO (siCtrl+DMSO and siC9+DMSO, respectively) or in 20 μM Amiloride (siCtrl+EIPA 20 μM and siC9+EIPA 20 μM, respectively). The scale bar represents 10 μm. WB on the right represents C9 KD efficiency in EIPA treated U87 cells. […] Statistical significance was assessed by an unpaired t-test: NS P>0.05, *P≤0.05, **P≤0.01, ***P≤0.001 ****P≤0.0001.

p53 [3] = assay: p53 western blot in p53 null U87 cells treated with doxorubicin; conditions: p53 null U87 cells (KO #4)
Procedure: To generate p53 knockout clones, U87 cells (7×10^5) were transfected with 2 μg p53 CRISPR/Cas9 KO plasmid (Santa Cruz Biotech™, sc-416469) using Lipofectamine 2000 (ThermoFisher™). Two days later, cells were treated with Nutlin-3 (10 μM) for 12 days to inhibit proliferation of cells with wild type p53, thereby enriching for p53 knockout cells. Single-cell clones were selected via limiting dilution, and p53 knockout clones were confirmed by western blotting using p53 antibody (FL-393).
To further validate the dependency of vacuolization on p53, two p53 null cell lines were generated using CRISPR. First, the cells lack of p53 was validated by treating them doxorubicin, […]. […] See FIG. 31, which is a WB showing p53 levels in wtp53 U87 (WT p53) cells and in p53 null U87 cells treated with DMSO (KO #4+DMSO) or DOX (KO #4+DOX).

U87 cells [4] = assay: Viability rescue with caspase inhibitor Z-VAD-FMK
Procedure: For viability assays (performed in 6-well plates), cells were harvested using trypsin (0.5 ml per well) and the media were saved from each well. The saved media was re-suspended with the trypsinised cells and 2-3 aliquots (50 μL each) of this suspension were taken into a 96-well plates. CellTiter-Glo™ (CTG) Luminescent Viability assay was used to measure the viability of these aliquots. CTG-media mixture (150 μL) were added to each well. The rest of the culture was used to extract protein. The viability of cells was measured using the 1:1 dilution of the CellTiter-Glo™ Luminescent reagent (Promega™, cat #G7573) with media, which was read on Victor™ 5 plate reader after 10 minutes of shaking at room temperature. The intensity of luminescence was normalized to that of the DMSO (Sigma™, D5879) control.
To confirm that cells undergo non-apoptotic death, apoptosis was blocked with a broad caspase inhibitor Z-VAD-FMK upon C9 KD. […] Additionally, the apoptosis inducer, staurosporine (STS), was used to asses Z-VAD-FMK efficacy. […] A beta galactosidase staining technique was used to asses senescence upon C9 KD. […] See FIG. 20, for which U87 cells were treated with control (siCtrl) and C9 (siC9; SEQ ID NO:631) siRNA and then subjected to β-Galactosidase Staining.

U87 cells [5] = assay: TUNEL assay for DNA breaks; conditions: vs control
Procedure: Cells were treated with control and C9 siRNA for three days. On day three, cells were collected for TUNEL assay using the FlowTACS kit (TREVIGEN™, 4817-60-K) according to manufacturer's instructions to detect DNA fragmentation. For a positive control, DNA damage was induced using doxorubicin. Data were collected on a FACSCalibur™ flow cytometer (Becton Dickinson™) and data analysis performed on FlowJo™.
ROS can cause oxidative DNA damage. Since elevated ROS levels were observed under C9 KD conditions, it may cause increase in DNA damage. To test this hypothesis, a TUNEL assay was used to measure DNA breaks. […] In addition to C9KD, U87 cells were treated with a known chemotherapeutic DNA damage-inducing drug to serve as a positive control for DNA damage (see FIG. 23). FIG. 23 presents data for the TUNEL assay of U87 cells treated as described for FIG. 21 and for positive DNA-damage control with 0.5 μM doxorubicin (DOX). FIG. 23A presents data for the percentage of cells with DNA fragmentation (shown by DNA damage) comparing control (siCtrl) C9 KD (siC9; SEQ ID NO:631) and DOX-treated cells as measured by FACS analysis. […] FIG. 24 is a set of graphs showing data for cells treated as described for FIG. 23, with the exception of using a different C9 siRNA, indicated as siC9 #2 (SEQ ID NO:633).

p53 [6] = assay: Western blot of phospho-p53, p53 and p21; conditions: U87 cells
Procedure: For Western blot analysis, cells were lysed with lysis buffer (20 mM sodium phosphate (pH 7.0), 250 mM NaCl, 30 mM sodium pyrophosphate, 0.1% Nonidet™ P-40, 5 mM EDTA, 10 mM NaF, 0.1 mM Na3VO4, and 1 mM PMSF) supplemented with complete protease inhibitors (Roche™) and homogenized by passage through a 28 gauge needle. Protein concentration was measured with a Bio-Rad™ protein assay dye reagent and results were read using a spectrophotometer (BiophotometerPlus™ by Eppendorf™). Protein extracts were resolved by SDS PAGE on gradient (Thermo Fisher™) or 12% gels. Proteins were then electrotransferred at 350 mA for 80 minutes onto a PVDF membrane (Immobilon-P PVDF). Membranes were blocked with PBST with 5% milk and 1% BSA for 30 minutes. Quantitation of blots was performed Image Studio Lite software (LI-COR Biosciences™).
One of the responses to DNA damage is activation of p53 by ATM. Upon DNA damage, ATM activation leads to p53 phosphorylation, which activates p53 as a transcription factor. Since increased DNA damage was observed upon C9 KD, whether p53 is activated in C9 depleted cells was investigated. First, total p53 levels were measured in U87 cells treated with control and two independent siRNAs against C9. […] Then, the levels of phosphorylated (active) p53 (at s15) was measured. Phosphorylation of s15 on p53 was increased in both C9 siRNA samples.

## CCN(CC)CCCC(C)Nc1nc(C)cc(Nc2ccc3nc(C)cc(N)c3c2)n1 (stereo not drawn) [NSC23766]
U87 cells [1]
  vacuoles per cell: significant drop in vacuoles

## CCN(c1nc(N)c(C(=O)NC(=N)N)nc1Cl)C(C)C [EIPA, 5-(N-ethyl-N-isopropyl) amiloride]
U87 cells [2]
  vacuole formation: significant inhibition of vacuole formation

## COc1cccc2c1C(=O)c1c(O)c3c(c(O)c1C2=O)C[C@@](O)(C(=O)CO)C[C@@H]3O[C@H]1C[C@H](N)[C@H](O)[C@H](C)O1 [doxorubicin, Doxorubicin hydrochloride]
p53 [3]
  p53 accumulation: did not induce p53 accumulation

## COC(=O)C[C@H](NC(=O)[C@H](C)NC(=O)[C@@H](NC(=O)OCc1ccccc1)C(C)C)C(=O)CF [Z-VAD-FMK] (Cbz-Val-Ala-Asp(OMe)-CH2F)
U87 cells [4]; C9 KD U87 cells
  rescue of cell viability: did not significantly rescue
U87 cells [4]; staurosporine (STS) treated U87 cells
  rescue of cell viability: able rescue viability

## siC9 #2: siRNA targeting C9 mRNA: GCACAUAUGGACUAUCAAUtt (SEQ ID NO:633; sense) and AUUGAUAGUCCAUAUGUGCtg (SEQ ID NO:634; antisense) (sense GCACAUAUGGACUAUCAAUTT; antisense AUUGAUAGUCCAUAUGUGCTG; chemistry not given here)
U87 cells [5]
  DNA breaks (TUNEL): increase in DNA breaks
p53 [6]
  p21 protein levels: increased p21 protein levels
  phosphorylation of s15 on p53: increased
  total p53 levels: elevates p53 levels
